Measured values as given in patent USRE48461E1, “Modulation of androgen receptor expression” (Ionis Pharmaceuticals, Inc., priority 2012, dated 2021).
e = 2'-O-(2-methoxyethyl) (MOE); d = 2'-deoxy (DNA)

Tests used:
[1] = test system: AR mRNA; assay: AR mRNA levels in LMR20 cells (with/without DHT or R1881); assay type: cell-based, human; details: with or without DHT/R1881
Description: LMR20 cells were plated at 1,500 cells per well in phenol red-free medium with CSS.

[2] = test system: CWR22-RV1 cells; assay: CWR22-RV1 cell proliferation (CellTiter 96); assay type: cell-based, human; details: RNAiMax, 6 days
Description: (§1) CWR22-RV1 cells were plated and transfected using RNAiMax reagent (Life Technologies) with ISIS oligonucleotides at 1.7 nM, 5.0 nM, 16.7 nM, or 50 nM concentrations. ISIS 347526 was included as a negative control. After a treatment period of 6 days, the target reduction and proliferative capacity of the cancer cells was measured.
(§2) Antisense inhibition of AR full-length mRNA was measured with the RTS3559 primer probe set. The results are presented in Table 63 as percent inhibition relative to non-treated cells. The reduction in V7 splice variant of the AR mRNA was also measured by RT-PCR using SYBR Green staining (Hu, R. et al., Cancer Res. 2009. 69: 16-22). The results are presented in Table 64, as percent reduction, relative to non-treated cells. Cell proliferation was measured with CellTiter 96® AQueous One Solution Cell Proliferation kit (Promega), following the manufacturer's instructions. Results are presented in Table 65 as percent inhibition of proliferation, relative to non-treated cells.

[3] = test system: AR mRNA; assay: AR mRNA in C4-2B cells by free uptake (hAR_LTS00943); assay type: cell-based, human; details: free uptake, 24 hrs
Description: (§3) Cells were plated at a concentration of 1,000 cells/well in 96-well plates to measure cell proliferation, and at 4,000 cells/well to measure target reduction. ISIS 549458, ISIS 549372, ISIS 549434, and ISIS 554221 were added individually at 0.04 μM, 0.20 μM, 1.00 μM, or 5.00 μM. After an incubation period of 24 hrs, mRNA levels were measured using hAR_LTS00943.

[4] = test system: AR-V7; assay: Western blot of AR-V7 in MDV3100-resistant C4-2B cells; assay type: cell-based, human; details: C4-2B MR cells (Example 16)
Description: (§4) ISIS 549372, ISIS 549434, and ISIS 554221 at 1 μM concentration of antisense oligonucleotide were each added to the culture media at 1 μM concentration for free uptake by the cells. After a treatment period of 2 days, cells were harvested in RIPA buffer containing protease inhibitors. The presence of bands for full-length AR, as well as the variant form, AR-V7, was detected by western blot using AR antibody (N-20, Santa Cruz).
(§5) Western analysis of full-length AR, as well as the AR-V7 variant, was also conducted in a manner similar to the assay described above.

[5] = test system: LMR20 cells; assay: Proliferation of MDV3100-resistant LMR20 cells (MTT; with R1881 or DHT); assay type: cell-based, human; details: 5 days
Description: LMR20 cells were plated at 1,500 cells per well in phenol red-free medium with charcoal-stripped fetal bovine serum (CSS), to remove any androgens from the medium (Life Technologies). […] The synthetic androgen agonist, R1881, (Takeda, A. N. et al., Mol. Pharmacol. 2007. 71: 473-82) was added on day 1 at 1 nM dose to a set of cells also treated with each of the antisense oligonucleotides. DHT was added on day 1 at a dose of 10 nM to another set of cells also treated with each of the antisense oligonucleotides. […] After a treatment period of 5 days, the proliferative ability of the cancer cells was measured by the standard MTT assay. Results are presented in Table 42 as percent inhibition of proliferation, relative to non-treated cells.

[6] = test system: V7 splice variant of the AR mRNA; assay: AR V7 splice variant mRNA in CWR22-RV1 cells (RT-PCR SYBR Green); assay type: cell-based, human; details: RNAiMax, 6 days
Description: as §1, §2

[7] = test system: full-length AR; assay: Western blot of full-length AR in MDV3100-resistant C4-2B cells; assay type: cell-based, human; details: C4-2B MR cells (Example 16)
Description: as §4, §5

[8] = test system: AR full-length mRNA; assay: AR full-length mRNA in CWR22-RV1 cells (RNAiMax, RTS3559); assay type: cell-based, human; details: 6 days
Description: as §1, §2

[9] = test system: C4-2B cells; assay: C4-2B cell proliferation, ASO in combination with MDV3100 (Example 19); assay type: cell-based, human; details: 6 days
Description: C4-2B cells were plated at 1,500 cells per well. […] ISIS 347526 was included as a negative control. […] After a treatment period of 6 days, the proliferative capacity of the cancer cells was measured with CellTiter 96® AQueous One Solution Cell Proliferation kit (Promega), following the manufacturer's instructions. Results are presented in Table 46 as percent inhibition of proliferation, relative to non-treated cells. Treatment of the cells with ISIS 549372 or ISIS 549458 reduced proliferation of the cells more extensively than treatment with ISIS 554221.

[10] = test system: C4-2B cells; assay: C4-2B cell proliferation by free uptake (MTT); assay type: cell-based, human; details: day 6
Description: as §3
On day 6, cells plated for measuring proliferation were incubated with MTT reagent until the development of color. Color intensity was measured using a spectrophotometer at 490 nm.

[11] = cynomolgus monkey, in vivo
Description: (§6) Prior to the study, the monkeys were kept in quarantine for a 30-day period, during which the animals were observed daily for general health. The monkeys were 2-4 years old and weighed between 2 and 4 kg. Thirteen groups of four randomly assigned male cynomolgus monkeys each were injected subcutaneously with ISIS oligonucleotide or PBS. PBS solution or ISIS oligonucleotides, at a dose of 40 mg/kg, were administered with a loading regimen consisting of four doses on the first week of the study (days 1, 3, 5, and 7), followed by a maintenance regimen consisting of once weekly administration starting on Day 14 (weeks 2 to 6). Subcutaneous injections were performed in clock-wise rotations at 4 sites on the back; one site per dose. The injection sites were delineated by tattoo, while sedated using ketamine, and were separated by a minimum of 3 cm.
The concentrations of the full-length oligonucleotide in the kidney and the liver of select treatment groups were measured. The method used is a modification of previously published methods (Leeds et al., 1996; Geary et al., 1999) which consist of a phenol-chloroform (liquid-liquid) extraction followed by a solid phase extraction.

[12] = test system: testosterone; assay: Serum testosterone levels in cynomolgus monkeys (ELISA); assay type: in vivo; details: cynomolgus monkey, 40 mg/kg subcutaneously
Description: Serum testosterone protein levels were measured in the plasma with an ELISA kit (Enzo Life Sciences), following the manufacturer's instructions.

[13] = cynomolgus monkey, in vivo, sc, 40 mg/kg
[14] = cynomolgus monkey, in vivo, sc, 40 mg/kg; remark: listed apart in the source
Description: as §6
Kidney function was also assessed by urinalysis. Fresh urine from all animals was collected on day 44 using a clean cage pan on wet ice. Food was removed overnight the day before fresh urine collection was done but water was supplied. The total protein and creatinine levels were measured using a Toshiba 120FR NEO automated chemistry analyzer (Toshiba Co., Japan) and the protein to creatinine ratio was calculated.

[15] = cynomolgus monkey, in vivo, sc, 40 mg/kg; remark: listed apart in the source
[16] = cynomolgus monkey, in vivo, sc, 40 mg/kg; remark: listed apart in the source
[17] = cynomolgus monkey, in vivo, sc, 40 mg/kg; remark: listed apart in the source
[18] = cynomolgus monkey, in vivo, sc, 40 mg/kg; remark: listed apart in the source
Description: as §6
To evaluate the effect of ISIS oligonucleotides on the overall health of the animals, body and organ weights were measured.

ACCAAGTTTCTTCAGC (LNA gapmer, phosphorothioate backbone, further chemistry not given here) [ISIS 554221, 3-10-3 LNA gapmer, phosphorothioate backbone, targeted to exon 4 of AR; benchmark, reference compound]
AR mRNA levels in LMR20 cells [1]: did not alter AR mRNA levels | Percent inhibition of cell proliferation ([2]; dose 5.0 nM): 11% | Percent inhibition of cell proliferation ([2]; dose 16.7 nM): 27% | Percent inhibition of cell proliferation ([2]; dose 50.0 nM): 47% | Percent inhibition of AR full-length mRNA ([3]; dose 0.04 μM): 0% | Percent inhibition of AR full-length mRNA ([3]; dose 0.20 μM): 0% | Percent inhibition of AR full-length mRNA ([3]; dose 1.00 μM): 0% | Percent inhibition of AR full-length mRNA ([3]; dose 5.00 μM): 0% | levels of AR-V7 (Western analysis) [4]: did not reduce levels of AR-V7 | Percent inhibition of LMR20 cell proliferation ([5]; CSS + DHT, ASO 0.04 μM): 0% | Percent inhibition of LMR20 cell proliferation ([5]; CSS + DHT, ASO 0.20 μM): 0% | Percent inhibition of LMR20 cell proliferation ([5]; CSS + DHT, ASO 1.0 μM): 10% | Percent inhibition of LMR20 cell proliferation ([5]; CSS + DHT, ASO 5.0 μM): 36% | Percent inhibition of LMR20 cell proliferation ([5]; CSS + R1881, ASO 0.04 μM): 1% | Percent inhibition of LMR20 cell proliferation ([5]; CSS + R1881, ASO 0.20 μM): 10% | Percent inhibition of LMR20 cell proliferation ([5]; CSS + R1881, ASO 1.0 μM): 19% | Percent inhibition of LMR20 cell proliferation ([5]; CSS + R1881, ASO 5.0 μM): 54% | Percent inhibition of LMR20 cell proliferation ([5]; CSS, ASO 0.04 μM): 0% | Percent inhibition of LMR20 cell proliferation ([5]; CSS, ASO 0.20 μM): 1% | Percent inhibition of LMR20 cell proliferation ([5]; CSS, ASO 1.0 μM): 2% | Percent inhibition of LMR20 cell proliferation ([5]; CSS, ASO 5.0 μM): 16% | Percent inhibition of AR splice variant, V7 ([6]; dose 5.0 nM): 1% | Percent inhibition of AR splice variant, V7 ([6]; dose 16.7 nM): 7% | Percent inhibition of AR splice variant, V7 ([6]; dose 50.0 nM): 35% | levels of full-length AR (Western analysis) [7]: reduced levels of full-length AR less extensively compared to ISIS 549372 | Percent inhibition of AR full-length mRNA ([8]; dose 5.0 nM): 41% | Percent inhibition of AR full-length mRNA ([8]; dose 16.7 nM): 67% | Percent inhibition of AR full-length mRNA ([8]; dose 50.0 nM): 72% | Percent inhibition of C4-2B cell proliferation with 0.1 μM ASO ([9]; 0.1 μM ASO + MDV3100 1 μM): 59% | Percent inhibition of C4-2B cell proliferation with 0.1 μM ASO ([9]; 0.1 μM ASO + MDV3100 […]): 29% | Percent inhibition of C4-2B cell proliferation with 0.1 μM ASO ([9]; 0.1 μM ASO, MDV3100 0 μM): 9% | Percent inhibition of C4-2B cell proliferation with 0.2 μM ASO ([9]; 0.2 μM ASO + MDV3100 1 μM): 67% | Percent inhibition of C4-2B cell proliferation with 0.2 μM ASO ([9]; 0.2 μM ASO + MDV3100 […]): 45% | Percent inhibition of C4-2B cell proliferation with 0.2 μM ASO ([9]; 0.2 μM ASO, MDV3100 0 μM): 23% | reduced cell proliferation, ASO alone ([9]; C4-2B cells, ASO alone, Table 46 (0.1 μM ASO)): 23% | Percent inhibition of cell proliferation ([10]; dose 0.04 μM): 0% | Percent inhibition of cell proliferation ([10]; dose 0.20 μM): 10% | Percent inhibition of cell proliferation ([10]; dose 1.00 μM): 21% | Percent inhibition of cell proliferation ([10]; dose 5.00 μM): 30%

TCTTATGTTTCCGAACCGTT (sugars from the 5' end e5 d10 e5, backbone and methylation of C not given here) [ISIS 347526, reference compound]
Percent inhibition of cell proliferation ([2]; dose 5.0 nM): 0% | Percent inhibition of cell proliferation ([2]; dose 16.7 nM): 0% | Percent inhibition of cell proliferation ([2]; dose 50.0 nM): 0% | levels of AR-V7 (Western analysis) [4]: did not reduce protein levels | Percent inhibition of AR splice variant, V7 ([6]; dose 5.0 nM): 0% | Percent inhibition of AR splice variant, V7 ([6]; dose 16.7 nM): 0% | Percent inhibition of AR splice variant, V7 ([6]; dose 50.0 nM): 10% | levels of full-length AR (Western analysis) [7]: did not reduce protein levels | Percent inhibition of AR full-length mRNA ([8]; dose 5.0 nM): 3% | Percent inhibition of AR full-length mRNA ([8]; dose 16.7 nM): 4% | Percent inhibition of AR full-length mRNA ([8]; dose 50.0 nM): 0%

ISIS 584269: antisense compound targeted to human AR (CCTTATGGATGCTGCT; 3-10-3 (S)-cEt gapmer, further chemistry not given here)
K/L ratio [11]: 4.0 | Oligonucleotide concentration, Kidney ([11]; sc, 40 mg/kg): 2823 μg/g tissue | Oligonucleotide concentration, Liver ([11]; sc, 40 mg/kg): 698 μg/g tissue | Serum testosterone level [12]: 14.1 ng/mL | HCT [13]: 41% | Hemoglobin [13]: 12.4 g/dL | Platelets [13]: 522000 µL | RBC [13]: 5.2e+06 µL | WBC [13]: 9800 µL | Urine protein/creatinine ratio [14]: 0.00 | Plasma BUN [15]: 21.8 mg/dL | Plasma Creatinine [15]: 0.89 mg/dL | C3 (% of baseline) [16]: 102 % of baseline | CRP [16]: 4.9 mg/dL | ALT [17]: 75 IU/L | AST [17]: 81 IU/L | Albumin [17]: 4.0 g/dL | Body Wt [18]: 2.5 kg | Heart weight [18]: 8.7 g | Kidney weight [18]: 13 g | Liver weight [18]: 60 g | Mesenteric lymph nodes weight [18]: 3.6 g | Spleen weight [18]: 4.7 g
